According to the NIST ThermoML archive (doi:10.1007/s10765-007-0223-x):
Numbers after ± are expanded uncertainties.

Assay: xn = mol fraction of the nth substance listed
Settings: 101 kPa, Liquid; for speed of sound: Single path-length method

COC(C)(C)C [2-methoxy-2-methylpropane] + CC(C)CC(C)(C)C
Settings | mass density [kg/m3] | speed of sound [m/s]
305.65 K, x1 = 0.049 | 683.001 ± 0.65 | –
305.65 K, x1 = 0.091 | 684.244 ± 0.64 | –
305.65 K, x1 = 0.197 | 687.643 ± 0.64 | –
305.65 K, x1 = 0.296 | 691.083 ± 0.63 | –
305.65 K, x1 = 0.394 | 694.818 ± 0.63 | –
305.65 K, x1 = 0.507 | 699.54 ± 0.62 | –
305.65 K, x1 = 0.603 | 703.873 ± 0.61 | –
305.65 K, x1 = 0.7 | 708.82 ± 0.61 | –
305.65 K, x1 = 0.79 | 713.83 ± 0.6 | –
305.65 K, x1 = 0.898 | 720.394 ± 0.59 | –
305.65 K, x1 = 0.951 | 723.998 ± 0.59 | –
305.65 K, x1 = 1 | 726.444 ± 0.58 | –
308.15 K, x1 = 0.049 | 680.9 ± 0.65 | 1037.7 ± 2.1
308.15 K, x1 = 0.091 | 682.124 ± 0.65 | 1035 ± 2.1
308.15 K, x1 = 0.197 | 685.47 ± 0.64 | 1029 ± 2.1
308.15 K, x1 = 0.296 | 688.864 ± 0.64 | 1022.8 ± 2.1
308.15 K, x1 = 0.394 | 692.544 ± 0.63 | 1017.6 ± 2.1
308.15 K, x1 = 0.507 | 697.225 ± 0.62 | 1011 ± 2.1
308.15 K, x1 = 0.603 | 701.481 ± 0.62 | 1006.8 ± 2.1
308.15 K, x1 = 0.7 | 706.365 ± 0.61 | 1002 ± 2.1
308.15 K, x1 = 0.79 | 711.31 ± 0.6 | 998.04 ± 2.1
308.15 K, x1 = 0.898 | 717.802 ± 0.6 | 993.91 ± 2.1
308.15 K, x1 = 0.951 | 721.377 ± 0.59 | 992.13 ± 2.1
308.15 K, x1 = 1 | 723.763 ± 0.58 | 991.34 ± 2.1
310.65 K, x1 = 0.049 | 678.79 ± 0.65 | 1027.3 ± 2.1
310.65 K, x1 = 0.091 | 679.994 ± 0.65 | 1024.6 ± 2.1
310.65 K, x1 = 0.197 | 683.293 ± 0.64 | 1018.5 ± 2.1
310.65 K, x1 = 0.296 | 686.637 ± 0.64 | 1012.2 ± 2.1
310.65 K, x1 = 0.394 | 690.27 ± 0.64 | 1006.9 ± 2.1
310.65 K, x1 = 0.507 | 694.875 ± 0.63 | 1000.2 ± 2.1
310.65 K, x1 = 0.603 | 699.077 ± 0.62 | 995.9 ± 2.1
310.65 K, x1 = 0.7 | 703.915 ± 0.61 | 991.12 ± 2.1
310.65 K, x1 = 0.79 | 708.777 ± 0.61 | 986.9 ± 2.1
310.65 K, x1 = 0.898 | 715.208 ± 0.6 | 982.76 ± 2.1
310.65 K, x1 = 0.951 | 718.741 ± 0.59 | 981.15 ± 2.1
310.65 K, x1 = 1 | 721.069 ± 0.59 | 980 ± 2.1
313.15 K, x1 = 0.049 | 676.674 ± 0.65 | 1017 ± 2.1
313.15 K, x1 = 0.091 | 677.857 ± 0.65 | 1014.4 ± 2.1
313.15 K, x1 = 0.197 | 681.108 ± 0.65 | 1008 ± 2.1
313.15 K, x1 = 0.296 | 684.416 ± 0.64 | 1001.9 ± 2.1
313.15 K, x1 = 0.394 | 687.984 ± 0.64 | 996.15 ± 2.1
313.15 K, x1 = 0.507 | 692.513 ± 0.63 | 989.48 ± 2.1
313.15 K, x1 = 0.603 | 696.659 ± 0.63 | 984.99 ± 2.1
313.15 K, x1 = 0.7 | 701.432 ± 0.62 | 980.08 ± 2.1
313.15 K, x1 = 0.79 | 706.232 ± 0.61 | 975.76 ± 2.1
313.15 K, x1 = 0.898 | 712.585 ± 0.6 | 971.49 ± 2.1
313.15 K, x1 = 0.951 | 716.075 ± 0.6 | 969.68 ± 2.1
313.15 K, x1 = 1 | 718.357 ± 0.59 | 968.63 ± 2.1
315.65 K, x1 = 0.049 | 674.551 ± 0.66 | 1006.8 ± 2.1
315.65 K, x1 = 0.091 | 675.716 ± 0.66 | 1004 ± 2.1
315.65 K, x1 = 0.197 | 678.915 ± 0.65 | 997.54 ± 2.1
315.65 K, x1 = 0.296 | 682.172 ± 0.65 | 991.38 ± 2.1
315.65 K, x1 = 0.394 | 685.682 ± 0.64 | 985.48 ± 2.1
315.65 K, x1 = 0.507 | 690.141 ± 0.64 | 978.73 ± 2.1
315.65 K, x1 = 0.603 | 694.229 ± 0.63 | 974.09 ± 2.1
315.65 K, x1 = 0.7 | 698.938 ± 0.62 | 969.06 ± 2.1
315.65 K, x1 = 0.79 | 703.665 ± 0.62 | 964.56 ± 2.1
315.65 K, x1 = 0.898 | 709.948 ± 0.61 | 960.23 ± 2.1
315.65 K, x1 = 0.951 | 713.392 ± 0.6 | 958.31 ± 2.1
315.65 K, x1 = 1 | 715.636 ± 0.6 | 957.31 ± 2.1
318.15 K, x1 = 0.049 | 672.418 ± 0.66 | 996.53 ± 2.1
318.15 K, x1 = 0.091 | 673.564 ± 0.66 | 993.65 ± 2.1
318.15 K, x1 = 0.197 | 676.709 ± 0.65 | 987.14 ± 2.1
318.15 K, x1 = 0.296 | 679.911 ± 0.65 | 980.84 ± 2.1
318.15 K, x1 = 0.394 | 683.366 ± 0.65 | 974.83 ± 2.1
318.15 K, x1 = 0.507 | 687.763 ± 0.64 | 968.07 ± 2.1
318.15 K, x1 = 0.603 | 691.788 ± 0.63 | 963.2 ± 2.1
318.15 K, x1 = 0.7 | 696.427 ± 0.63 | 958.04 ± 2.1
318.15 K, x1 = 0.79 | 701.097 ± 0.62 | 953.55 ± 2.1
318.15 K, x1 = 0.898 | 707.292 ± 0.61 | 949.03 ± 2.1
318.15 K, x1 = 0.951 | 710.693 ± 0.61 | 947.02 ± 2.1
318.15 K, x1 = 1 | 712.897 ± 0.6 | 946.03 ± 2.1
320.65 K, x1 = 0.049 | 670.282 ± 0.66 | 986.33 ± 2.1
320.65 K, x1 = 0.091 | 671.436 ± 0.66 | 983.34 ± 2.1
320.65 K, x1 = 0.197 | 674.493 ± 0.66 | 976.73 ± 2.1
320.65 K, x1 = 0.296 | 677.642 ± 0.65 | 970.3 ± 2.1
320.65 K, x1 = 0.394 | 681.043 ± 0.65 | 964.2 ± 2.1
320.65 K, x1 = 0.507 | 685.37 ± 0.64 | 957.34 ± 2.1
320.65 K, x1 = 0.603 | 689.334 ± 0.64 | 952.36 ± 2.1
320.65 K, x1 = 0.7 | 693.905 ± 0.63 | 947.08 ± 2.1
320.65 K, x1 = 0.79 | 698.504 ± 0.62 | 942.46 ± 2.1
320.65 K, x1 = 0.898 | 704.622 ± 0.61 | 937.81 ± 2.1
320.65 K, x1 = 0.951 | 707.978 ± 0.61 | 935.72 ± 2.1
320.65 K, x1 = 1 | 710.141 ± 0.6 | 934.76 ± 2.1
323.15 K, x1 = 0.049 | 668.138 ± 0.67 | 976.18 ± 2.1
323.15 K, x1 = 0.091 | 669.267 ± 0.67 | 973.04 ± 2.1
323.15 K, x1 = 0.197 | 672.267 ± 0.66 | 966.34 ± 2.1
323.15 K, x1 = 0.296 | 675.361 ± 0.66 | 959.8 ± 2.1
323.15 K, x1 = 0.394 | 678.707 ± 0.65 | 953.63 ± 2.1
323.15 K, x1 = 0.507 | 682.969 ± 0.65 | 946.69 ± 2.1
323.15 K, x1 = 0.603 | 686.867 ± 0.64 | 941.57 ± 2.1
323.15 K, x1 = 0.7 | 691.375 ± 0.63 | 936.24 ± 2.1
323.15 K, x1 = 0.79 | 695.909 ± 0.63 | 931.51 ± 2.1
323.15 K, x1 = 0.898 | 701.938 ± 0.62 | 926.65 ± 2.1
323.15 K, x1 = 0.951 | 705.25 ± 0.61 | 924.5 ± 2.1
323.15 K, x1 = 1 | 707.381 ± 0.61 | 923.46 ± 2.1
